Measured values taken from PubChem BioAssay (NCI).
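Growth conditions: 96-well plates. Treatment: test compound, 48 hours, 5 concentrations. Analysis: linear interpolation between bracketing concentrations; unreached endpoints set to highest concentration. Abbreviation: GI50, concentration required for 50% inhibition of growth. TGI is the concentration that stops growth completely.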

Columns and labels:
Test in all cases: NCI anticancer screen, dose series, 48 h
HL-60(TB) leukemia = tested on: HL-60(TB) leukemia
MALME-3M melanoma = tested on: MALME-3M melanoma
HT29 colon = tested on: HT29 colon
MOLT-4 leukemia = tested on: MOLT-4 leukemia
MDA-MB-435 = tested on: MDA-MB-435
K-562 leukemia = tested on: K-562 leukemia
HCC-2998 colon = tested on: HCC-2998 colon
A549 NSCLC = tested on: A549 NSCLC
SF-539 CNS = tested on: SF-539 CNS
UACC-62 melanoma = tested on: UACC-62 melanoma
A498 renal = tested on: A498 renal
MDA-MB-231 breast = tested on: MDA-MB-231 breast
SNB-19 CNS = tested on: SNB-19 CNS
HS 578T breast = tested on: HS 578T breast
CCRF-CEM leukemia = tested on: CCRF-CEM leukemia
NCI/ADR-RES ovarian = tested on: NCI/ADR-RES ovarian
ACHN renal = tested on: ACHN renal
SW-620 colon = tested on: SW-620 colon
SF-268 CNS = tested on: SF-268 CNS
MCF7 breast = tested on: MCF7 breast
OVCAR-8 ovarian = tested on: OVCAR-8 ovarian
CAKI-1 renal = tested on: CAKI-1 renal
OVCAR-3 ovarian = tested on: OVCAR-3 ovarian
SF-295 CNS = tested on: SF-295 CNS
MDA-MB-468 breast = tested on: MDA-MB-468 breast
SK-MEL-28 melanoma = tested on: SK-MEL-28 melanoma
NCI-H226 lung = tested on: NCI-H226 lung
NCI-H460 lung = tested on: NCI-H460 lung
SN12C renal = tested on: SN12C renal
PC-3 prostate = tested on: PC-3 prostate
OVCAR-4 ovarian = tested on: OVCAR-4 ovarian
HOP-92 NSCLC = tested on: HOP-92 NSCLC
COLO 205 colon = tested on: COLO 205 colon
UACC-257 melanoma = tested on: UACC-257 melanoma
UO-31 renal = tested on: UO-31 renal
BT-549 breast = tested on: BT-549 breast
IGROV1 ovarian = tested on: IGROV1 ovarian
SK-MEL-2 melanoma = tested on: SK-MEL-2 melanoma
HCT-15 colon = tested on: HCT-15 colon
SK-OV-3 ovarian = tested on: SK-OV-3 ovarian
SK-MEL-5 melanoma = tested on: SK-MEL-5 melanoma
NCI-H23 lung = tested on: NCI-H23 lung
LOX IMVI melanoma = tested on: LOX IMVI melanoma
OVCAR-5 ovarian = tested on: OVCAR-5 ovarian
RXF 393 renal = tested on: RXF 393 renal
KM12 colon = tested on: KM12 colon
EKVX NSCLC = tested on: EKVX NSCLC
M14 melanoma = tested on: M14 melanoma
SNB-75 CNS = tested on: SNB-75 CNS
786-0 renal = tested on: 786-0 renal
RPMI-8226 leukemia = tested on: RPMI-8226 leukemia
DU-145 prostate = tested on: DU-145 prostate
TK-10 renal = tested on: TK-10 renal
HOP-62 NSCLC = tested on: HOP-62 NSCLC
U251 CNS = tested on: U251 CNS
NCI-H522 lung = tested on: NCI-H522 lung
T-47D breast = tested on: T-47D breast
HCT-116 colon = tested on: HCT-116 colon

SMILES: Cc1ccccc1[C@H]1C(C(=O)c2ccc(Cl)cc2)C2(N[C@@H]1c1ccccc1)C(=O)Nc1ccc(Cl)cc12 (stereo partly specified)
- GI50 (HL-60(TB) leukemia): 9.94 µM
- TGI (HL-60(TB) leukemia): 24.2 µM
- GI50 (MALME-3M melanoma): 5.63 µM
- TGI (MALME-3M melanoma): 10.9 µM
- GI50 (HT29 colon): 5.58 µM
- TGI (HT29 colon): 11.4 µM
- GI50 (MOLT-4 leukemia): 4.93 µM
- TGI (MOLT-4 leukemia): 16.9 µM
- GI50 (MDA-MB-435): 6.04 µM
- TGI (MDA-MB-435): 12.1 µM
- GI50 (K-562 leukemia): 7.49 µM
- TGI (K-562 leukemia): 36.4 µM
- GI50 (HCC-2998 colon): 5.38 µM
- TGI (HCC-2998 colon): 10.5 µM
- GI50 (A549 NSCLC): 5.63 µM
- TGI (A549 NSCLC): 11.5 µM
- GI50 (SF-539 CNS): 6.2 µM
- TGI (SF-539 CNS): 11.7 µM
- GI50 (UACC-62 melanoma): 4.6 µM
- TGI (UACC-62 melanoma): 9.56 µM
- GI50 (A498 renal): 6.28 µM
- TGI (A498 renal): 12.5 µM
- GI50 (MDA-MB-231 breast): 5.25 µM
- TGI (MDA-MB-231 breast): 10.4 µM
- GI50 (SNB-19 CNS): 6.07 µM
- TGI (SNB-19 CNS): 11.6 µM
- GI50 (HS 578T breast): 6.79 µM
- TGI (HS 578T breast): 39.5 µM
- GI50 (CCRF-CEM leukemia): 9.04 µM
- TGI (CCRF-CEM leukemia): 36.8 µM
- GI50 (NCI/ADR-RES ovarian): 5.64 µM
- TGI (NCI/ADR-RES ovarian): 11.4 µM
- GI50 (ACHN renal): 5.89 µM
- TGI (ACHN renal): 11.1 µM
- GI50 (SW-620 colon): 6.97 µM
- TGI (SW-620 colon): 20 µM
- GI50 (SF-268 CNS): 4.74 µM
- TGI (SF-268 CNS): 12.1 µM
- GI50 (MCF7 breast): 4.47 µM
- TGI (MCF7 breast): 9.78 µM
- GI50 (OVCAR-8 ovarian): 6.41 µM
- TGI (OVCAR-8 ovarian): 14.5 µM
- GI50 (CAKI-1 renal): 4.23 µM
- TGI (CAKI-1 renal): 9.47 µM
- GI50 (OVCAR-3 ovarian): 3.68 µM
- TGI (OVCAR-3 ovarian): 9.82 µM
- GI50 (SF-295 CNS): 5.21 µM
- TGI (SF-295 CNS): 10.2 µM
- GI50 (MDA-MB-468 breast): 4.98 µM
- TGI (MDA-MB-468 breast): 10.1 µM
- GI50 (SK-MEL-28 melanoma): 6.26 µM
- TGI (SK-MEL-28 melanoma): 11.8 µM
- GI50 (NCI-H226 lung): 5.47 µM
- TGI (NCI-H226 lung): 11.2 µM
- GI50 (NCI-H460 lung): 7.5 µM
- TGI (NCI-H460 lung): 19.5 µM
- GI50 (SN12C renal): 4.96 µM
- TGI (SN12C renal): 9.93 µM
- GI50 (PC-3 prostate): 4.02 µM
- TGI (PC-3 prostate): 10.6 µM
- GI50 (OVCAR-4 ovarian): 5.74 µM
- TGI (OVCAR-4 ovarian): 13.7 µM
- GI50 (HOP-92 NSCLC): 4.07 µM
- TGI (HOP-92 NSCLC): 9.11 µM
- GI50 (COLO 205 colon): 5.56 µM
- TGI (COLO 205 colon): 10.9 µM
- GI50 (UACC-257 melanoma): 5.82 µM
- TGI (UACC-257 melanoma): 11.6 µM
- GI50 (UO-31 renal): 4.48 µM
- TGI (UO-31 renal): 9.28 µM
- GI50 (BT-549 breast): 5.49 µM
- TGI (BT-549 breast): 10.9 µM
- GI50 (IGROV1 ovarian): 4.58 µM
- TGI (IGROV1 ovarian): 9.64 µM
- GI50 (SK-MEL-2 melanoma): 5.31 µM
- TGI (SK-MEL-2 melanoma): 10.5 µM
- GI50 (HCT-15 colon): 5.56 µM
- TGI (HCT-15 colon): 11.1 µM
- GI50 (SK-OV-3 ovarian): 5.88 µM
- TGI (SK-OV-3 ovarian): 12.2 µM
- GI50 (SK-MEL-5 melanoma): 6.09 µM
- TGI (SK-MEL-5 melanoma): 11.7 µM
- GI50 (NCI-H23 lung): 5.54 µM
- TGI (NCI-H23 lung): 11.1 µM
- GI50 (LOX IMVI melanoma): 5.45 µM
- TGI (LOX IMVI melanoma): 10.5 µM
- GI50 (OVCAR-5 ovarian): 5.39 µM
- TGI (OVCAR-5 ovarian): 10.6 µM
- GI50 (RXF 393 renal): 1.89 µM
- TGI (RXF 393 renal): 7.25 µM
- GI50 (KM12 colon): 6.06 µM
- TGI (KM12 colon): 13.5 µM
- GI50 (EKVX NSCLC): 4.15 µM
- TGI (EKVX NSCLC): 8.85 µM
- GI50 (M14 melanoma): 6.5 µM
- TGI (M14 melanoma): 12.6 µM
- GI50 (SNB-75 CNS): 4.37 µM
- TGI (SNB-75 CNS): 12.6 µM
- GI50 (786-0 renal): 5.75 µM
- TGI (786-0 renal): 11.1 µM
- GI50 (RPMI-8226 leukemia): 8.18 µM
- TGI (RPMI-8226 leukemia): 30.2 µM
- GI50 (DU-145 prostate): 6.11 µM
- TGI (DU-145 prostate): 12.7 µM
- GI50 (TK-10 renal): 5.3 µM
- TGI (TK-10 renal): 10.6 µM
- GI50 (HOP-62 NSCLC): 5.88 µM
- TGI (HOP-62 NSCLC): 11.3 µM
- GI50 (U251 CNS): 5.85 µM
- TGI (U251 CNS): 11.7 µM
- GI50 (NCI-H522 lung): 5.52 µM
- TGI (NCI-H522 lung): 10.8 µM
- GI50 (T-47D breast): 3.66 µM
- TGI (T-47D breast): 8.83 µM
- GI50 (HCT-116 colon): 5.04 µM
- TGI (HCT-116 colon): 10.2 µM
